Data from publication PMC5161367, “Discovery of Novel Small Molecule Inhibitors of VEGF Expression in Tumor Cells Using a Cell-Based High Throughput Screening Platform” (PLoS ONE, 2016).
Read-outs that look alike come from different tables or passages of the source.

Key:
[1] = Microsome metabolism - murine; format: in vitro ADME, mouse
Protocol: (§1) Pharmacological characterization of PTC-510. Pharmacological assays were performed to characterize PTC-510, including metabolic stability in human, primate mouse and rat liver microsomes; absorption in Caco-2 cells; in vitro effect on hERG ion channel; pharmacokinetics; and acute toxicity in the rat.

VEGF = VEGF ELISA, hypoxia-induced VEGF production in HeLa cells; format: cell-based; settings: Homo sapiens; for IC50: HeLa cells under hypoxia, read-out: IC50, inhibition of hypoxia induced VEGF production (VEGF ELISA)
Protocol: (§2) Cells were treated with vehicle control (0.5% DMSO) or compounds at the indicated concentration for 48 hours, and specific proteins in conditioned medium were quantified using commercially available ELISA kits (R&D Systems) according to the manufacturer’s recommendations. VEGF was quantified in HeLa cells under hypoxia (1% oxygen); Tumor necrosis factor alpha (TNFα) was quantified in CEM cells stimulated with 1 μg/mL interleukin-1 beta (Sigma); erythropoietin (EPO) was quantified in HepB3 cells under hypoxic conditions (1% oxygen); and granulocyte colony-stimulating factor (G-CSF), basic fibroblast growth factor (FGF-2) and insulin-like growth factor 1 (IGF-1) were quantified without induction in HT1080 cells, HeLa cells and HepG2 cells, respectively.
A sigmoid dose-response with variable slope regression curve was generated for each compound. The maximal and minimal inhibition values were set at 100% and 0%, respectively. IC50 and CC50 values were automatically calculated after curve fitting by the software.
Hits from the HTS were then evaluated for their ability to modulate hypoxia-inducible endogenous VEGF expression. HeLa cells were cultured under hypoxic conditions (1% O2, 5% CO2, balanced with nitrogen) in the presence or absence of compound at a concentration of 7.5 μM in duplicate. VEGF protein levels in the conditioned medium were quantified by ELISA. […] Compounds that reduced endogenous hypoxia-induced VEGF by 50% or more at a single concentration of 7.5 μM were further evaluated.
The IC50 values for compounds that inhibited VEGF production were determined next. A seven-point dose-response analysis was performed for each of the 137 compounds. In parallel, a dose-response cytotoxicity assay was performed to determine the CC50 (the concentration resulting in 50% cellular growth inhibition or cytotoxicity) under the same conditions as VEGF ELISA to determine whether hypoxia-induced VEGF inhibition was due to cytotoxicity.

[2] = Plasma exposure after a single oral dose in mice; format: in vivo, mouse; settings: male C57BL/6 mice, single oral dose 10 mg/kg, 5% DMSO and 95% PEG300
Protocol: Supplementary file pone.0168366.s006.doc: S6 Fig Exposure of PTC-510 after oral administration. Male C57BL/6 mice were dosed with test compound in 5% DMSO and 95% PEG300. At specified time points (3 mice per time point), mice were euthanized and blood collected by terminal cardiac puncture. Plasma test compounds were then measured by LC/MS-MS. (DOC) Click here for additional data file.
Male C57BL/6 mice were administered test compounds in 5% DMSO and 95% PEG300 at a dose of 10 mg/kg. At specified time points (3 mice per time point), mice were euthanized and blood collected by terminal cardiac puncture. Plasma concentrations of test compounds were then quantified by LC/MS-MS.

hVEGF = assay: HT1080 xenograft pharmacodynamic model, intratumor hVEGF; format: in vivo, mouse (human tumor xenograft); settings: twice per day for 7 days
Protocol: (§3) Log phase growing tumor cells (5–10 x 10^6 cells/mouse, depending on the cell line) were implanted subcutaneously in athymic nude mice. When the average tumor size reached the indicated size, mice were randomly divided into groups and administered vehicle (5% DMSO/ 95% PEG-300) or test compounds by oral gavage. Tumor volumes were measured twice per week using digital calipers and body weights once per week. Tumor volume was determined according to the formula: L x (W)^2/2, where L is the longest dimension and W is the shortest dimension.
(§4) At the end of experiments, the tumors were excised from mice and homogenized on ice using a Powergen homogenizer fitted with Omni-Tip disposable/reusable probes (both from Fisher Scientific) in Tris-HCl buffer containing a cocktail of proteinase inhibitors. Intra-tumor human VEGF levels, as well as levels of other growth factors or proteins, were subsequently measured using commercially available ELISA kits (R&D Systems). Protein concentrations of the homogenates were determined using the Bradford protein assay (Bio-Rad) and intratumor growth factor levels were normalized to the total protein concentration.
Among the VEGF UTR-selective compounds identified, PTC-858 is a potent hit with adequate pharmaceutical properties (data not shown). These pharmaceutical properties enabled the testing of this compound in a human xenograft pharmacodynamic model in mice to measure modulation of intratumor VEGF levels. Established human HT1080 fibrosarcoma tumors grown as a xenograft in nude mice were treated with PTC-858 orally at a dose of 200 mg/kg, twice per day for 7 days. […] In addition, tumor growth was reduced by 25% after only 7 days of treatment.

[3] = target: T1, phosphodiesterase 5 (PDE5) (Homo sapiens, UniProt O76074); assay: PDE5 in vitro enzyme assay (fluorescence polarization); format: biochemical; settings: tadalafil positive control
T1 construct: purchased CalBiochem 524715
Protocol: PDE5 activity was measured with a PDE5 assay kit (cat#: R8039, Molecular Devices) according to manufacturer’s instructions. PDE5 enzyme was purchased from CalBiochem (cat#: 524715). Tadalafil (Cialis® was used as a positive control. Assays were performed in 96-well plates in duplicate, the fluorescence polarization was determined on a ViewLux microplate reader (Perkin Elmer) using the instrument settings recommended by the manufacturer. (DOC) Click here for additional data file.
PDE5 activity was quantified usinga PDE5 assay kit (cat#: R8039, Molecular Devices) according to manufacturer’s instructions. PDE5 enzyme was purchased from CalBiochem (cat#: 524715). The positive control, tadalafil (Cialis®), was synthesized in house. Assays were performed in 96-well plates in duplicate and fluorescence polarization was determined on a ViewLux microplate reader (Perkin Elmer) using the instrument settings recommended by the manufacturer.

in vitro = in vitro ADME; settings: human, Caco-2
Protocol: as §1

IGF-1 = IGF-1 ELISA in HepG-2 cells under normoxia; format: cell-based; settings: Homo sapiens, HepG2; HepG-2 cells under normoxia (21% oxygen), 48 hours
Protocol: as §2
(§5) Several target proteins were chosen as selectivity counter-screens, including TNF-alpha, FGF-2, G-CSF, IGF-1, and EPO. Similar to that of VEGF, the expression levels of these proteins are post-transcriptionally regulated, either through a 5’-UTR IRES, 3’-UTR AU-rich elements (AREs), or both.

mVEGF = assay: HT1080 xenograft pharmacodynamic model, intratumor mVEGF; format: in vivo, mouse; settings: 200 mg/kg, twice per day for 7 days, oral, mean +/- SD, n = 10
Protocol: as §3, §4
Among the VEGF UTR-selective compounds identified, PTC-858 is a potent hit with adequate pharmaceutical properties (data not shown). […]

TNFα = TNFα ELISA in CEM cells with IL-1 induction; format: cell-based; settings: Homo sapiens, CCRF-CEM; CEM cells (T lymphoblasts) with 1 μg/mL IL-1 induction, 48 hours; read-out: ELISA EC50, TNFa
Protocol: as §2, §5

FGF-2 = FGF-2 ELISA in HeLa cells under normoxia; format: cell-based; settings: Homo sapiens; HeLa cells under normoxia (21% oxygen), 48 hours; read-out: ELISA EC50, FGF2
Protocol: as §2, §5

| Compound | Microsome metabolism - murine, % loss @ 1 h [1] [%] | IC50 (VEGF) [nM] | EC50 (VEGF; HeLa cells, read-out: HeLa VEGF ELISA/SAR EC50) [nM] | EC90 (VEGF; HeLa cells, read-out: HeLa VEGF ELISA/SAR EC90) [nM] | bio-availability and exposure compared to PTC-858 [2] | effect on intratumor VEGF in HT1080 tumors (hVEGF; 50 mg/kg, oral) | inhibition of PDE5 activity [3] | Papp (in vitro) [×10⁻⁶ cm/s] | EC50 (VEGF; HeLa cells under hypoxia (1% oxygen), 48 hours, read-out: ELISA EC50, VEGF) [nM] | EC50 (IGF-1) [µM] | change of intratumor human VEGF protein levels vs vehicle (hVEGF; HT1080 xenograft, 200 mg/kg orally) | intratumor hVEGF (hVEGF; HT1080 xenograft, 200 mg/kg, oral, mean +/- SD, n = 10) | intratumor mVEGF (mVEGF) | EC50 (TNFα) [µM] | EC50 (FGF-2) [nM] |
| --- | --- | --- | --- | --- | --- | --- | --- | --- | --- | --- | --- | --- | --- | --- | --- |
| COc1ccc(C2c3[nH]c4ccc(Br)cc4c3CC3C(=O)N(C4CCCCC4)C(=S)N32)cc1.O=C(O)C(F)(F)F (stereo not shown) [PTC-510, 9-bromo-2-cyclohexyl-5-(4-methoxyphenyl)-3-thioxo-2,3,5,6,11,11a-hexahydro-1H-imidazo[1’,5’:1,6]pyrido[3,4-b]indol-1-one trifluoroacetate] | 0 | ~6 | 6 | 50 | much better bio-availability and exposure | selectively inhibited production of intratumor VEGF | did not inhibit PDE5 activity | 1 | – | – | – | – | – | – | – |
| Brc1ccc2[nH]c3c(c2c1)CCCC3n1cccc1 (stereo not shown) [PTC-858, 6-bromo-1-(1H-pyrrol-1-yl)-2,3,4,9-tetrahydro-1H-carbazole] | – | 7.5 | – | – | – | – | – | – | 13 ± 20 | > 30 | significant reduction of intratumor human VEGF protein levels | 127.5 ± 108.6 pg/mg total tumor proteins | 12.6 ± 5.9 pg/mg total tumor proteins | > 30 | 580 |
